# Reference: patent publication EP0908457B1, “3-(1,2-benzisothiazol- and isoxazol-5-Y1)-2,4(1H,3H)-pyrimidinedione or thione and 3-(1,2-benzisothiazol- and isoxazol-5-y1)-4(3H)-pyrimidinone or thione herbicidal agents” (BASF AKTIENGESELLSCHAFT, priority 1997, dated 1999)
# Tests used:
# [1] = test system: Echinochloa oryzoides (Ard.) Fritsch.; assay: Preemergence weed control under flooded paddy conditions, ECHORC (Watergrass (Calif.)); format: in vivo; conditions: flooded paddy; for ECHORC: herbicidal effect rating 0-9, three to four weeks after treatment; on herbicidal effect rating, ECHORC: meaning of each grade not given here
# [2] = test system: Cyperus serotinus, Rottb.; assay: Preemergence weed control under flooded paddy conditions, CYPSE (Flatsedge); format: in vivo; conditions: for CYPSE: herbicidal effect rating 0-9, three to four weeks after treatment; on herbicidal effect rating, CYPSE: meaning of each grade not given here
# [3] = test system: Oryza sativa, (L.) Tebonnet; assay: Rice tolerance to post-transplant applications under flooded paddy conditions (Example 187), ORYSAT (Rice, Tebonnet); conditions: for ORYSAT: herbicidal effect rating 0-9, three to four weeks after treatment; on herbicidal effect rating ORYSAT: meaning of each grade not given here
# Cyperus iria = assay: Preemergence weed control under flooded paddy conditions, CYPIR (Rice Flatsedge); format: in vivo; conditions: flooded paddy; for CYPIR: herbicidal effect rating 0-9, three to four weeks after treatment; on herbicidal effect rating, CYPIR: meaning of each grade not given here
# [4] = test system: Monochoria vaginalis, Presl.; assay: Preemergence weed control under flooded paddy conditions, MOOVA (Monochoria); format: in vivo; conditions: flooded paddy; for MOOVA: herbicidal effect rating 0-9, three to four weeks after treatment; on herbicidal effect rating, MOOVA: meaning of each grade not given here
# Sagittaria pygmaea, L. = assay: Preemergence weed control under flooded paddy conditions, SAGPY (Arrowhead (Pygmaea)); format: in vivo; conditions: flooded paddy; for SAGPY: herbicidal effect rating 0-9, three to four weeks after treatment; on herbicidal effect rating, SAGPY: meaning of each grade not given here
# [5] = Rate 0.0320 kg/ha, preemergence, rated 3-4 weeks after treatment
# [6] = Rate 0.0620 kg/ha, preemergence, rated 3-4 weeks after treatment
# [7] = Rate 0.1250 kg/ha, preemergence, rated 3-4 weeks after treatment
# [8] = Rate 0.2500 kg/ha, preemergence, rated 3-4 weeks after treatment
# [9] = Rate 0.5000 kg/ha, preemergence, rated 3-4 weeks after treatment
# [10] = 0.0320 kg/ha, preemergence weeds
# [11] = 0.0620 kg/ha, preemergence weeds
# [12] = 0.1250 kg/ha, preemergence weeds
# [13] = 0.2500 kg/ha, preemergence weeds
# [14] = 0.0313 kg/ha, preemergence, rated three to four weeks after treatment
# [15] = 0.0625 kg/ha, preemergence, rated three to four weeks after treatment
# [16] = 0.1250 kg/ha, preemergence, rated three to four weeks after treatment
# [17] = 0.2500 kg/ha, preemergence, rated three to four weeks after treatment
# [18] = Rate 0.0320 kg/ha, preemergence weeds, rated three to four weeks after treatment
# [19] = Rate 0.0620 kg/ha, preemergence weeds, rated three to four weeks after treatment
# [20] = Rate 0.1250 kg/ha, preemergence weeds, rated three to four weeks after treatment
# [21] = Rate 0.2500 kg/ha, preemergence weeds, rated three to four weeks after treatment
smiles,measurement,setting,value
"Cc1ccc(OCC(=O)C(C)(C)C)c(-c2nsc3ccc(-n4c(=O)cc(C(F)(F)F)n(C)c4=O)cc23)c1 [Example 540, 2,4(1H,3H)-Pyrimidinedione, 3-{3-[6-(3,3-dimethyl-2-oxobutoxy)-m-tolyl]-1,2-benzisothiazol-5-yl}-1-methyl-6-(trifluoromethyl)-]","herbicidal effect rating, ECHORC",[1]; [5],2.3
same,"herbicidal effect rating, ECHORC",[1]; [6],3.4
same,"herbicidal effect rating, ECHORC",[1]; [7],4.7
same,"herbicidal effect rating, ECHORC",[1]; [8],9.0
same,"herbicidal effect rating, ECHORC",[1]; [9],9.0
same,"herbicidal effect rating, CYPSE",[2]; [5],0.0
same,"herbicidal effect rating, CYPSE",[2]; [6],0.0
same,"herbicidal effect rating, CYPSE",[2]; [7],0.0
same,"herbicidal effect rating, CYPSE",[2]; [8],0.0
same,"herbicidal effect rating, CYPSE",[2]; [9],3.0
same,herbicidal effect rating ORYSAT,"[3]; Rate 0.0320 kg/ha, rated 3-4 weeks after treatment",0.0
same,herbicidal effect rating ORYSAT,"[3]; Rate 0.0620 kg/ha, rated 3-4 weeks after treatment",0.0
same,herbicidal effect rating ORYSAT,"[3]; Rate 0.1250 kg/ha, rated 3-4 weeks after treatment",0.0
same,herbicidal effect rating ORYSAT,"[3]; Rate 0.2500 kg/ha, rated 3-4 weeks after treatment",1.0
same,herbicidal effect rating ORYSAT,"[3]; Rate 0.5000 kg/ha, rated 3-4 weeks after treatment",3.0
same,"herbicidal effect rating, CYPIR",Cyperus iria; [5],6.0
same,"herbicidal effect rating, CYPIR",Cyperus iria; [6],8.0
same,"herbicidal effect rating, CYPIR",Cyperus iria; [7],9.0
same,"herbicidal effect rating, CYPIR",Cyperus iria; [8],9.0
same,"herbicidal effect rating, CYPIR",Cyperus iria; [9],9.0
same,"herbicidal effect rating, MOOVA",[4]; [5],8.0
same,"herbicidal effect rating, MOOVA",[4]; [6],9.0
same,"herbicidal effect rating, MOOVA",[4]; [7],9.0
same,"herbicidal effect rating, MOOVA",[4]; [8],9.0
same,"herbicidal effect rating, MOOVA",[4]; [9],9.0
same,"herbicidal effect rating, SAGPY","Sagittaria pygmaea, L.; [5]",0.0
same,"herbicidal effect rating, SAGPY","Sagittaria pygmaea, L.; [6]",0.0
same,"herbicidal effect rating, SAGPY","Sagittaria pygmaea, L.; [7]",0.0
same,"herbicidal effect rating, SAGPY","Sagittaria pygmaea, L.; [8]",0.0
same,"herbicidal effect rating, SAGPY","Sagittaria pygmaea, L.; [9]",0.0
"CN(C(=O)COc1ccccc1-c1nsc2ccc(-n3c(=O)cc(C(F)(F)F)n(C)c3=O)cc12)S(C)(=O)=O [Example 438, Acetamide, 2-{o-{5-[3,6-dihydro-3-methyl-2,6-dioxo-4-(trifluoromethyl)-1(2H)-pyrimidinyl]-1,2-benzisothiazol-3-yl}phenoxy}-N-methyl-N-(methylsulfonyl)-]",ECHORC,[1]; [10],7.0
same,ECHORC,[1]; [11],8.0
same,ECHORC,[1]; [12],9.0
same,ECHORC,[1]; [13],9.0
same,CYPSE,[2]; [10],4.5
same,CYPSE,[2]; [11],9.0
same,CYPSE,[2]; [12],7.0
same,CYPSE,[2]; [13],9.0
same,ORYSAT,[3]; 0.0320 kg/ha,4.0
same,ORYSAT,[3]; 0.0620 kg/ha,5.0
same,ORYSAT,[3]; 0.1250 kg/ha,7.0
same,ORYSAT,[3]; 0.2500 kg/ha,8.0
same,CYPIR,Cyperus iria; [10],4.5
same,CYPIR,Cyperus iria; [11],6.5
same,CYPIR,Cyperus iria; [12],8.5
same,CYPIR,Cyperus iria; [13],9.0
same,MOOVA,[4]; [10],8.0
same,MOOVA,[4]; [11],8.5
same,MOOVA,[4]; [12],9.0
same,MOOVA,[4]; [13],9.0
same,SAGPY,"Sagittaria pygmaea, L.; [10]",2.0
same,SAGPY,"Sagittaria pygmaea, L.; [11]",3.5
same,SAGPY,"Sagittaria pygmaea, L.; [12]",8.5
same,SAGPY,"Sagittaria pygmaea, L.; [13]",9.0
"C=CCOC(=O)COc1ccc(C)cc1-c1nsc2ccc(-n3c(=O)cc(C(F)(F)F)n(C)c3=O)cc12 [Example 69, Allyl {{2-{5-[3,6-dihydro-3-methyl-2,6-dioxo-4-(trifluoromethyl)-1(2H)-pyrimidinyl]-1,2-benzisothiazol-3-yl}-p-tolyl}oxy}acetate]","herbicidal effect rating, ECHORC",[1]; [14],9.0
same,"herbicidal effect rating, ECHORC",[1]; [15],9.0
same,"herbicidal effect rating, ECHORC",[1]; [16],9.0
same,"herbicidal effect rating, ECHORC",[1]; [17],9.0
same,"herbicidal effect rating, CYPSE",[2]; [14],0.0
same,"herbicidal effect rating, CYPSE",[2]; [15],0.0
same,"herbicidal effect rating, CYPSE",[2]; [16],2.0
same,"herbicidal effect rating, CYPSE",[2]; [17],9.0
same,"herbicidal effect rating, ORYSAT (rice tolerance)","[3]; 0.0313 kg/ha, rated three to four weeks after treatment",3.5
same,"herbicidal effect rating, ORYSAT (rice tolerance)","[3]; 0.0625 kg/ha, rated three to four weeks after treatment",5.0
same,"herbicidal effect rating, ORYSAT (rice tolerance)","[3]; 0.1250 kg/ha, rated three to four weeks after treatment",6.5
same,"herbicidal effect rating, ORYSAT (rice tolerance)","[3]; 0.2500 kg/ha, rated three to four weeks after treatment",8.0
same,"herbicidal effect rating, CYPIR",Cyperus iria; [14],0.0
same,"herbicidal effect rating, CYPIR",Cyperus iria; [15],2.0
same,"herbicidal effect rating, CYPIR",Cyperus iria; [16],4.0
same,"herbicidal effect rating, CYPIR",Cyperus iria; [17],7.0
same,"herbicidal effect rating, MOOVA",[4]; [14],9.0
same,"herbicidal effect rating, MOOVA",[4]; [15],9.0
same,"herbicidal effect rating, MOOVA",[4]; [16],9.0
same,"herbicidal effect rating, MOOVA",[4]; [17],9.0
same,"herbicidal effect rating, SAGPY","Sagittaria pygmaea, L.; [14]",0.0
same,"herbicidal effect rating, SAGPY","Sagittaria pygmaea, L.; [15]",0.0
same,"herbicidal effect rating, SAGPY","Sagittaria pygmaea, L.; [16]",2.0
same,"herbicidal effect rating, SAGPY","Sagittaria pygmaea, L.; [17]",9.0
"Cn1c(C(F)(F)F)cc(=O)n(-c2ccc3snc(-c4ccccc4OCC(=O)O)c3c2)c1=O [Example 312, Acetic acid, {o-{5-[3,6-dihydro-3-methyl-2,6-dioxo-4-(trifluoromethyl)-1(2H)-pyrimidinyl]-1,2-benzisothiazol-3-yl}phenoxy}-]","herbicidal effect rating, ECHORC",[1]; [18],6.0
same,"herbicidal effect rating, ECHORC",[1]; [19],6.5
same,"herbicidal effect rating, ECHORC",[1]; [20],9.0
same,"herbicidal effect rating, ECHORC",[1]; [21],9.0
same,"herbicidal effect rating, CYPSE",[2]; [18],0.0
same,"herbicidal effect rating, CYPSE",[2]; [19],3.5
same,"herbicidal effect rating, CYPSE",[2]; [20],4.5
same,"herbicidal effect rating, CYPSE",[2]; [21],6.0
same,herbicidal effect rating ORYSAT,"[3]; Rate 0.0320 kg/ha, rated three to four weeks after treatment",5.0
same,herbicidal effect rating ORYSAT,"[3]; Rate 0.0620 kg/ha, rated three to four weeks after treatment",6.5
same,herbicidal effect rating ORYSAT,"[3]; Rate 0.1250 kg/ha, rated three to four weeks after treatment",7.0
same,herbicidal effect rating ORYSAT,"[3]; Rate 0.2500 kg/ha, rated three to four weeks after treatment",7.5
same,"herbicidal effect rating, CYPIR",Cyperus iria; [18],4.5
same,"herbicidal effect rating, CYPIR",Cyperus iria; [19],6.5
same,"herbicidal effect rating, CYPIR",Cyperus iria; [20],9.0
same,"herbicidal effect rating, CYPIR",Cyperus iria; [21],9.0
same,"herbicidal effect rating, MOOVA",[4]; [18],4.5
same,"herbicidal effect rating, MOOVA",[4]; [19],6.0
same,"herbicidal effect rating, MOOVA",[4]; [20],9.0
same,"herbicidal effect rating, MOOVA",[4]; [21],9.0
same,"herbicidal effect rating, SAGPY","Sagittaria pygmaea, L.; [18]",0.0
same,"herbicidal effect rating, SAGPY","Sagittaria pygmaea, L.; [19]",2.0
same,"herbicidal effect rating, SAGPY","Sagittaria pygmaea, L.; [20]",5.5
same,"herbicidal effect rating, SAGPY","Sagittaria pygmaea, L.; [21]",6.5
